Reference: ChEMBL document CHEMBL2086342, “Synthesis and preliminary bioevaluation of novel E-ring modified acetal analog of camptothecin as cytotoxic agents” (Eur J Med Chem, 2012)
Calls of active or inactive are those of the source. No cut-off for these calls is given here.

How the values were obtained:
HCT-116 = assay: Antiproliferative activity against human HCT116 cells after 3 days by MTT assay; type: functional, cell-based; details: HCT-116, 72 h
MDA-MB-435 = assay: Antiproliferative activity against human MDA-MB-435 cells after 3 days by MTT assay; type: functional, cell-based; details: MDA-MB-435, 72 h
A549 [1] = assay: Antiproliferative activity against human A549 cells after 3 days by MTT assay; type: functional, cell-based; details: A549, 72 h
Bos taurus [2] = species on record: Bos taurus; assay: Inhibition of calf thymus DNA topoisomerase 1-mediated relaxation of supercoiled DNA pBR322 assessed as appearance of short DNA fragment at 100 uM after 15 mins by agarose gel electrophoresis
Bos taurus [3] = species on record: Bos taurus; assay: Inhibition of calf thymus DNA topoisomerase 1-mediated relaxation of supercoiled DNA pBR322 assessed as appearance of short DNA fragment after 15 mins by agarose gel electrophoresis
Mus musculus [4] = assay: Toxicity in human A549 cells xenografted in BALB/c mouse assessed as mortality at 2 mg/kg, ip qd for 5 days measured after 14 days; type: organism-based; parameters: dose 2 mg/kg, route intraperitoneal; details: in vivo, 336 h
Mus musculus [5] = assay: Toxicity in human A549 cells xenografted in BALB/c mouse assessed as reduction in body weight at 2 mg/kg, ip qd for 5 days measured after 14 days; type: organism-based; parameters: dose 2 mg/kg, route intraperitoneal; details: in vivo, 336 h
Mus musculus [6] = assay: Toxicity in human A549 cells xenografted in BALB/c mouse assessed as gross abnormalities at 2 mg/kg, ip qd for 5 days measured after 14 days by necropsy analysis; type: organism-based; parameters: dose 2 mg/kg, route intraperitoneal; details: in vivo, 336 h
A549 [7] = assay: Antitumor activity against human A549 cells xenografted in BALB/c mouse assessed as decrease in tumor weight at 2 mg/kg, ip qd for 5 days measured after 14 days relative to control; type: functional; details: route intraperitoneal, read-out: TGI
Mus musculus [8] = assay: Toxicity in human A549 cells xenografted in BALB/c mouse assessed as reduction in body weight at 0.5 mg/kg, iv qd for 5 days measured after 14 days; type: organism-based; parameters: dose 0.5 mg/kg, route intravenous; details: in vivo, 336 h
A549 [9] = assay: Antitumor activity against human A549 cells xenografted in BALB/c mouse assessed as decrease in tumor weight at 0.5 mg/kg, iv qd for 5 days measured after 14 days relative to control; type: functional; details: read-out: TGI
Mus musculus [10] = assay: Toxicity in human A549 cells xenografted in BALB/c mouse assessed as mortality at 0.5 mg/kg, iv qd for 5 days measured after 14 days; type: organism-based; parameters: dose 0.5 mg/kg, route intravenous; details: in vivo, 336 h
A549 [11] = assay: Induction of apoptosis in human A549 cells at 5 uM after 48 hrs by annexinV and propidium iodide dual stain based flow cytometry analysis relative to control; type: functional
A549 [12] = assay: Induction of apoptosis in human A549 cells assessed as morphological change at 5 uM after 48 hrs by phase contrast microscopy analysis; type: functional, cell-based
ZR-75-30 = assay: Antiproliferative activity against human ZR75-30 cells after 3 days by MTT assay; type: functional, cell-based; details: ZR-75-30, 72 h
Bos taurus [13] = species on record: Bos taurus; assay: Inhibition of calf thymus DNA topoisomerase 1-mediated relaxation of supercoiled DNA pBR322 assessed as appearance of short DNA fragment at 1 to 50 uM after 15 mins by agarose gel electrophoresis
MRC5 = assay: Antiproliferative activity against human MRC5 cells after 3 days by MTT assay; type: cell-based; details: mrc5, 72 h

| SMILES | IC50 (HCT-116) [nM] | IC50 (MDA-MB-435) [nM] | IC50 (A549 [1]) [nM] | inhibition (Bos taurus [2]) | further results |
| --- | --- | --- | --- | --- | --- |
| CC[C@]1(O)c2cc3n(c(=O)c2CO[C@H]1OC(=O)CCC(=O)O)Cc1cc2ccccc2nc1-3 | 264 | 1320 | 308 | – | – |
| CCOCCO[C@@H]1OCc2c(cc3n(c2=O)Cc2cc4c([N+](=O)[O-])cccc4nc2-3)[C@@]1(O)CC | 56.9 | 1080 | 5690 | – | – |
| CC[C@]1(O)c2cc3n(c(=O)c2CO[C@H]1OC(C)COC)Cc1cc2ccccc2nc1-3 (stereo partly drawn) | 117 | 2740 | 8380 | – | – |
| CC[C@]1(O)c2cc3n(c(=O)c2CO[C@H]1OC)Cc1cc2ccccc2nc1-3 | 532 | 3670 | 420 | Active | – |
| CC[C@@]1(O)C(=O)OCc2c1cc1n(c2=O)Cc2cc3ccccc3nc2-1 [CAMPTOTHECIN] | 110 | 43.6 | 2610 | – | inhibition (Bos taurus [3]): Dose-dependent effect |
| CCOCCO[C@@H]1OCc2c(cc3n(c2=O)Cc2cc4ccccc4nc2-3)[C@@]1(O)CC | 90.2 | 469 | 2580 | Active | Activity (Mus musculus [4]): Non-toxic; Activity (Mus musculus [5]): 20.98 g; Activity (Mus musculus [6]): Non-toxic; inhibition in vivo at 2 mg/kg (A549 [7]): 35% |
| CCC(C)O[C@@H]1OCc2c(cc3n(c2=O)Cc2cc4ccccc4nc2-3)[C@@]1(O)CC (stereo partly drawn) | > 100000 | > 100000 | > 100000 | – | – |
| CC[C@]1(O)c2cc3n(c(=O)c2CO[C@H]1OCCOC)Cc1cc2ccccc2nc1-3 | 333 | 4920 | 5190 | Active | – |
| CCOCC(C)O[C@@H]1OCc2c(cc3n(c2=O)Cc2cc4ccccc4nc2-3)[C@@]1(O)CC (stereo partly drawn) | 236 | 2520 | 7400 | – | – |
| CC[C@]1(O)c2cc3n(c(=O)c2CO[C@H]1OC(C)C)Cc1cc2ccccc2nc1-3 | 11500 | > 100000 | > 100000 | – | – |
| CC[C@@]1(O)C(=O)OCc2c1cc1n(c2=O)Cc2cc3c(CN(C)C)c(O)ccc3nc2-1 [TOPOTECAN] | 88.9 | 917 | 2800 | – | Activity (Mus musculus [8]): 15.15 g; inhibition in vivo at 0.5 mg/kg (A549 [9]): 57.5%; Activity (Mus musculus [10]): Non-toxic |
| CC[C@]1(O)c2cc3n(c(=O)c2CO[C@H]1OCCF)Cc1cc2ccccc2nc1-3 | 249 | 1330 | 6310 | Active | – |
| CC[C@]1(O)c2cc3n(c(=O)c2CO[C@@H]1OC)Cc1cc2ccccc2nc1-3 | 8170 | 56400 | 8800 | – | – |
| CCCCO[C@@H]1OCc2c(cc3n(c2=O)Cc2cc4ccccc4nc2-3)[C@@]1(O)CC | 95100 | > 100000 | > 100000 | Active | – |
| CC[C@]1(O)c2cc3n(c(=O)c2CO[C@H]1OCC(F)(F)C(F)(F)F)Cc1cc2ccccc2nc1-3 | 73 | 606 | 302 | – | – |
| CC[C@]1(O)c2cc3n(c(=O)c2CO[C@H]1OCC(F)(F)F)Cc1cc2ccccc2nc1-3 | 309 | 2300 | 5970 | Active | – |
| CCO[C@@H]1OCc2c(cc3n(c2=O)Cc2cc4ccccc4nc2-3)[C@@]1(O)CC | 406 | 6250 | 322 | Active | – |
| CCCCc1c2c(nc3ccccc13)-c1cc3c(c(=O)n1C2)CO[C@@H](OCCOCC)[C@]3(O)CC | 1 | 223 | 598 | Active | Activity (Mus musculus [4]): Non-toxic; Activity (A549 [11]): 0.5%; Activity (Mus musculus [5]): 21.09 g; Activity (A549 [12]): Active; IC50 (ZR-75-30): 122 nM; inhibition (Bos taurus [13]): inactive; Activity (MRC5): Non-toxic; Activity (Mus musculus [6]): Non-toxic; inhibition in vivo at 2 mg/kg (A549 [7]): 27% |
| CCCCCO[C@@H]1OCc2c(cc3n(c2=O)Cc2cc4ccccc4nc2-3)[C@@]1(O)CC | 127 | 10600 | 678 | – | – |
| CCOCCO[C@@H]1OCc2c(cc3n(c2=O)Cc2cc4cc(OC)ccc4nc2-3)[C@@]1(O)CC | 1 | 210 | 838 | Active | inhibition (Bos taurus [13]): inactive |
| CCCO[C@@H]1OCc2c(cc3n(c2=O)Cc2cc4ccccc4nc2-3)[C@@]1(O)CC | 517 | 12700 | 323 | – | – |
| CC[C@]1(O)c2cc3n(c(=O)c2CO[C@H]1OCC(C)C)Cc1cc2ccccc2nc1-3 | 210 | 7900 | 394 | – | – |
